# Calls of active or inactive are those of the source. The rule behind the calls is not given here.
# Tests used:
# [1] = Cytotoxicity against human K562 cells incubated for 72 hrs by CellTiter 96 aqueous one solution reagent based assay; format: functional, cell-based
# [2] = Cytotoxicity against doxorubicin-resistant human K562R cells incubated for 72 hrs by CellTiter 96 aqueous one solution reagent based assay; format: functional, cell-based; conditions: k-562r
# [3] = Resistance index, ratio of IC50 for cytotoxicity against doxorubicin-resistant human K562R cells to IC50 for cytotoxicity against human K562 cells; format: functional
# [4] = system: K562R; test: Inhibition of P-gp in doxorubicin-resistant human K562R cells assessed as rhodamine influx by measuring mean fluorescence intensity at 10 uM incubated for 20 mins by flow cytometry; format: cell-based
# [5] = system: K562R; test: Inhibition of P-gp in doxorubicin-resistant human K562R cells assessed as rhodamine influx by measuring ratio of rhodamine mean fluorescence intensity in presence and absence of compound at 10 uM incubated for 20 mins by flow cytometry; format: cell-based
# [6] = Cytotoxicity against human MRC5 cells incubated for 72 hrs by CellTiter 96 aqueous one solution reagent based assay; format: toxicity, cell-based; conditions: mrc5, 72 h
# [7] = system: K562R; conditions: Homo sapiens
# Description: Inhibition of P-gp in doxorubicin-resistant human K562R cells assessed as rhodamine efflux by measuring mean fluorescence intensity at 10 uM incubated for 1 hr by flow cytometry (Rvb = 0.47 No_unit)
# [8] = system: K562R; test: Inhibition of P-gp in doxorubicin-resistant human K562R cells assessed as rhodamine influx by measuring ratio of rhodamine mean fluorescence intensity in presence and absence of compound at 5 uM incubated for 20 mins by flow cytometry; format: cell-based
# [9] = Cytotoxicity against doxorubicin-resistant human K562R cells assessed as reduction in cell viability at 1 uM incubated for 72 hrs by CellTiter 96 aqueous one solution reagent based assay; format: functional, K562
# [10] = Cytotoxicity against doxorubicin-resistant human K562R cells assessed as reduction in cell viability at 2 uM incubated for 72 hrs by CellTiter 96 aqueous one solution reagent based assay; format: functional, K562
# [11] = system: K562R; test: Inhibition of P-gp-mediated multidrug resistance in doxorubicin-resistant human K562R cells assessed as potentiation of 50 nM vinorelbine-induced cytotoxicity at 2 uM incubated for 72 hrs by CellTiter 96 aqueous one solution reagent based assay; format: cell-based
# [12] = system: K562R; test: Inhibition of P-gp-mediated multidrug resistance in doxorubicin-resistant human K562R cells assessed as potentiation of 5 nM vinorelbine-induced cytotoxicity by measuring cell viability at 1 uM incubated for 72 hrs by CellTiter 96 aqueous one solution reagent based assay
# [13] = system: K562R; test: Inhibition of P-gp-mediated multidrug resistance in doxorubicin-resistant human K562R cells assessed as potentiation of 1 uM doxorubicin-induced cytotoxicity by measuring cell death level at 2 uM incubated for 72 hrs by CellTiter 96 aqueous one solution reagent based assay; set-up: scale not given: the % may be the effect or the level left
# [14] = system: K562; test: Potentiation of 0.1 to 1 nM vinorelbine-induced cytotoxicity by measuring reduction in cell viability against human K562 cells at 2 uM incubated for 72 hrs by CellTiter 96 aqueous one solution reagent based assay; format: functional
# [15] = organism: Homo sapiens; test: Stimulation of recombinant human P-gp ATPase activity at 10 uM by Pgp-Glo assay
# [16] = organism: Homo sapiens; test: Inhibition of recombinant human P-gp ATPase activity at 40 uM by Pgp-Glo assay
SMILES,IC50 [1],IC50 [2],Ratio IC50 [3],Flu intensity [4],Ratio [5],Activity [6],Flu intensity [7],inhibition [8],Activity [9],Activity [10],inhibition [11],Activity [12],Activity [13],Activity [14],Activity [15],inhibition [16]
CCC1=C[C@@H]2CN(C1)Cc1c([nH]c3ccccc13)[C@@](C(=O)OC)(c1cc3c(cc1OC)N(C)[C@H]1[C@@](O)(C(=O)OC)[C@H](OC(C)=O)[C@]4(CC)C=CCN5CC[C@]31[C@@H]54)C2 [VINORELBINE],0.003 µmol,0.41 µmol,137,1.6,0.9,Toxic,0.42,,,,,,,,,
CC[C@]1(O)C[C@@H]2CN(CCc3c([nH]c4ccccc34)[C@@](C(=O)OC)(c3cc4c(cc3OC)N(C)[C@H]3[C@@](O)(C(=O)OC)[C@H](OC(C)=O)[C@]5(CC)C=CCN6CC[C@]43[C@@H]65)C2)C1 [VINBLASTINE],0.004 µmol,0.48 µmol,120,1.2,0.7,Toxic,0.42,,,,,,,,,
C#Cc1ccc2[nH]c3c(c2c1)C/C(C(=O)OC)=C\N1CC(CC)=C[C@@H](C1)C[C@]3(C(=O)OC)c1cc2c(cc1OC)N(C)[C@H]1[C@@](O)(C(=O)OC)[C@H](OC(C)=O)[C@]3(CC)C=CCN4CC[C@]21[C@@H]43,0.6 µmol,3 µmol,5,1.6,0.9,,0.45,,,,,,,,,
CCC1=C[C@H]2CN(/C=C(/C(=O)OCc3ccccc3)Cc3c([nH]c4ccccc34)[C@@](C(=O)OC)(c3cc4c(cc3OC)N(C)[C@H]3[C@@](O)(C(=O)OC)[C@H](OC(C)=O)[C@]5(CC)C=CCN6CC[C@]43[C@@H]65)C2)C1,0.1 µmol,> 10 µmol,>100,2.3,1.3,,0.48,,,,,,,,,
COc1cccc2c1C(=O)c1c(O)c3c(c(O)c1C2=O)C[C@@](O)(C(=O)CO)C[C@@H]3O[C@H]1C[C@H](N)[C@H](O)[C@H](C)O1 [DOXORUBICIN],0.047 µmol,35 µmol,745,,,,,,,,,,,,,
CCC1=C[C@H]2CN(C1)C[C@H](C(=O)OCc1ccccc1)Cc1c([nH]c3ccccc13)[C@@](C(=O)OC)(c1cc3c(cc1OC)N(C)[C@H]1[C@@](O)(C(=O)OC)[C@H](OC(C)=O)[C@]4(CC)C=CCN5CC[C@]31[C@@H]54)C2,0.4 µmol,> 10 µmol,>25,2.2,1.2,,0.48,,,,,,,,,
CCOC(=O)/C1=C/N2CC(CC)=C[C@@H](C2)C[C@](C(=O)OC)(c2cc3c(cc2OC)N(C)[C@H]2[C@@](O)(C(=O)OC)[C@H](OC(C)=O)[C@]4(CC)C=CCN5CC[C@]32[C@@H]54)c2[nH]c3ccccc3c2C1,0.1 µmol,> 10 µmol,>100,7.2,4,,0.64,,,,,,,,,
C#Cc1ccc2[nH]c3c(c2c1)C/C(C(=O)OC)=C(/C(=O)NC(C)C)N1CC(CC)=C[C@@H](C1)C[C@]3(C(=O)OC)c1cc2c(cc1OC)N(C)[C@H]1[C@@](O)(C(=O)OC)[C@H](OC(C)=O)[C@]3(CC)C=CCN4CC[C@]21[C@@H]43,0.6 µmol,2.5 µmol,4,1.8,1,,0.51,,,,,,,,,
CCOC(=O)[C@@H]1Cc2c([nH]c3ccccc23)[C@@](C(=O)OC)(c2cc3c(cc2OC)N(C)[C@H]2[C@@](O)(C(=O)OC)[C@H](OC(C)=O)[C@]4(CC)C=CCN5CC[C@]32[C@@H]54)C[C@H]2C=C(CC)CN(C2)C1,0.08 µmol,3 µmol,37,5.3,2.9,,0.77,,,,,,,,,
CCC1=C[C@H]2CN(C1)C1=C(Cc3c([nH]c4ccccc34)[C@@](C(=O)OC)(c3cc4c(cc3OC)N(C)[C@H]3[C@@](O)(C(=O)OC)[C@H](OC(C)=O)[C@]5(CC)C=CCN6CC[C@]43[C@@H]65)C2)C(=O)N(C(C)C)C1=O,2.6 µmol,6 µmol,2.3,7.6,4.2,Toxic,2.9,Active,,,,,,,,
CCC1=C[C@H]2CN(C1)/C(C(=O)NCc1ccccc1)=C(/C(=O)OC)Cc1c([nH]c3ccccc13)[C@@](C(=O)OC)(c1cc3c(cc1OC)N(C)[C@H]1[C@@](O)(C(=O)OC)[C@H](OC(C)=O)[C@]4(CC)C=CCN5CC[C@]31[C@@H]54)C2,0.04 µmol,6 µmol,150,2.2,1.2,,0.55,,,,,,,,,
CCC1=C[C@H]2CN(/C=C(/C(=O)OC)Cc3c([nH]c4ccc(Br)cc34)[C@@](C(=O)OC)(c3cc4c(cc3OC)N(C)[C@H]3[C@@](O)(C(=O)OC)[C@H](OC(C)=O)[C@]5(CC)C=CCN6CC[C@]43[C@@H]65)C2)C1,0.5 µmol,3 µmol,6,2.1,1.2,,0.47,,,,,,,,,
CCC1=C[C@H]2CN(C1)C1=C(Cc3c([nH]c4ccccc34)[C@@](C(=O)OC)(c3cc4c(cc3OC)N(C)[C@H]3[C@@](O)(C(=O)OC)[C@H](OC(C)=O)[C@]5(CC)C=CCN6CC[C@]43[C@@H]65)C2)C(=O)N(Cc2ccccc2)C1=O,0.9 µmol,5 µmol,5.5,11.3,6.3,Toxic,1.89,Active,20%,20%,Active,40%,90%,20%,Active,Active
CCC1=C[C@H]2CN(C1)/C(C(=O)NC(C)C)=C(/C(=O)OC)Cc1c([nH]c3ccccc13)[C@@](C(=O)OC)(c1cc3c(cc1OC)N(C)[C@H]1[C@@](O)(C(=O)OC)[C@H](OC(C)=O)[C@]4(CC)C=CCN5CC[C@]31[C@@H]54)C2,0.04 µmol,2 µmol,50,2.9,1.6,,1.39,,,,,,,,,
CCC1=C[C@H]2CN(C1)C1=C(Cc3c([nH]c4ccccc34)[C@@](C(=O)OC)(c3cc4c(cc3OC)N(C)[C@H]3[C@@](O)(C(=O)OC)[C@H](OC(C)=O)[C@]5(CC)C=CCN6CC[C@]43[C@@H]65)C2)C(=O)N(CC(C)C)C1=O,0.45 µmol,2.5 µmol,5.5,36,20,Toxic,7.72,Active,,,,,,,,

# — ChEMBL document CHEMBL3860099, “Original Vinca Derivatives: From P-Glycoprotein Substrates to P-Glycoprotein Inhibitors” (J Med Chem, 2016)
